{"source": "ChEMBL document CHEMBL5052840", "about": "“Pharmaceutical compounds and therapeutic methods” (2020)", "key": {"[1]": {"assay": "Brain concentration in male C57BL/6 mouse at 10 mg/kg, iv administered as single dose measured at 0.08 hrs measured by LC/MS-MS analysis", "assay_type": "ADME, organism-based", "conditions": "read-out: Drug uptake"}, "[2]": {"assay": "Plasma concentration in male C57BL/6 mouse at 10 mg/kg, po administered as single dose measured at 0.35 hrs measured by LC/MS-MS analysis", "assay_type": "ADME, organism-based"}, "[3]": {"assay": "Ratio of drug level in male C57BL/6 mouse brain to plasma at 10 mg/kg, ip administered as single dose measured at 0.35 hrs measured by LC/MS-MS analysis", "assay_type": "ADME, organism-based", "conditions": "read-out: BPR"}, "[4]": {"assay": "Brain concentration in male C57BL/6 mouse at 10 mg/kg, po administered as single dose measured at 3 hrs measured by LC/MS-MS analysis", "assay_type": "ADME, organism-based", "conditions": "read-out: Drug uptake"}, "[5]": {"assay": "Ratio of drug level in male C57BL/6 mouse brain to plasma at 10 mg/kg, po administered as single dose measured at 3 hrs measured by LC/MS-MS analysis", "assay_type": "ADME, organism-based", "conditions": "read-out: BPR"}, "[6]": {"assay": "Plasma concentration in male C57BL/6 mouse at 10 mg/kg, po administered as single dose measured at 0.08 hrs measured by LC/MS-MS analysis", "assay_type": "ADME, organism-based"}, "[7]": {"assay": "Ratio of drug level in male C57BL/6 mouse brain to plasma at 10 mg/kg, ip administered as single dose measured at 3 hrs measured by LC/MS-MS analysis", "assay_type": "ADME, organism-based", "conditions": "read-out: BPR"}, "[8]": {"assay": "Ratio of drug level in male C57BL/6 mouse brain to plasma at 10 mg/kg, po administered as single dose measured at 0.35 hrs measured by LC/MS-MS analysis", "assay_type": "ADME, organism-based", "conditions": "read-out: BPR"}, "[9]": {"assay": "Plasma concentration in male C57BL/6 mouse at 10 mg/kg, ip administered as single dose measured at 3 hrs measured by LC/MS-MS analysis", "assay_type": "ADME, organism-based"}, "[10]": {"assay": "Ratio of drug level in male C57BL/6 mouse brain to plasma at 10 mg/kg, iv administered as single dose measured at 6 hrs measured by LC/MS-MS analysis", "assay_type": "ADME, organism-based", "conditions": "read-out: BPR"}, "[11]": {"assay": "Plasma concentration in male C57BL/6 mouse at 10 mg/kg, iv administered as single dose measured at 1 hr measured by LC/MS-MS analysis", "assay_type": "ADME, organism-based"}, "[12]": {"assay": "Plasma concentration in male C57BL/6 mouse at 10 mg/kg, ip administered as single dose measured at 1 hr measured by LC/MS-MS analysis", "assay_type": "ADME, organism-based"}, "[13]": {"assay": "Ratio of drug level in male C57BL/6 mouse brain to plasma at 10 mg/kg, iv administered as single dose measured at 0.08 hrs measured by LC/MS-MS analysis", "assay_type": "ADME, organism-based", "conditions": "read-out: BPR"}, "[14]": {"assay": "Ratio of drug level in male C57BL/6 mouse brain to plasma at 10 mg/kg, ip administered as single dose measured at 1 hr measured by LC/MS-MS analysis", "assay_type": "ADME, organism-based", "conditions": "read-out: BPR"}, "[15]": {"assay": "Brain concentration in male C57BL/6 mouse at 10 mg/kg, iv administered as single dose measured at 6 hrs measured by LC/MS-MS analysis", "assay_type": "ADME, organism-based", "conditions": "read-out: Drug uptake"}, "[16]": {"assay": "Brain concentration in male C57BL/6 mouse at 10 mg/kg, po administered as single dose measured at 6 hrs measured by LC/MS-MS analysis", "assay_type": "ADME, organism-based", "conditions": "read-out: Drug uptake"}, "[17]": {"assay": "Efflux ratio of apparent permeability across basolateral to apical membrane over apical to basolateral membrane in human Caco-2 cells measured by LC-MS analysis", "assay_type": "ADME, cell-based"}, "[18]": {"assay": "Plasma concentration in male C57BL/6 mouse at 10 mg/kg, iv administered as single dose measured at 3 hrs measured by LC/MS-MS analysis", "assay_type": "ADME, organism-based"}, "[19]": {"assay": "Ratio of drug level in male C57BL/6 mouse brain to plasma at 10 mg/kg, iv administered as single dose measured at 1 hr measured by LC/MS-MS analysis", "assay_type": "ADME, organism-based", "conditions": "read-out: BPR"}, "[20]": {"assay": "Ratio of drug level in male C57BL/6 mouse brain to plasma at 10 mg/kg, iv administered as single dose measured at 3 hrs measured by LC/MS-MS analysis", "assay_type": "ADME, organism-based", "conditions": "read-out: BPR"}, "[21]": {"assay": "Plasma concentration in male C57BL/6 mouse at 10 mg/kg, iv administered as single dose measured at 0.08 hrs measured by LC/MS-MS analysis", "assay_type": "ADME, organism-based"}, "[22]": {"assay": "Brain concentration in male C57BL/6 mouse at 10 mg/kg, ip administered as single dose measured at 24 hrs measured by LC/MS-MS analysis", "assay_type": "ADME, organism-based", "conditions": "read-out: Drug uptake"}, "[23]": {"assay": "Brain concentration in male C57BL/6 mouse at 10 mg/kg, ip administered as single dose measured at 0.35 hrs measured by LC/MS-MS analysis", "assay_type": "ADME, organism-based", "conditions": "read-out: Drug uptake"}, "[24]": {"assay": "Brain concentration in male C57BL/6 mouse at 10 mg/kg, iv administered as single dose measured at 1 hr measured by LC/MS-MS analysis", "assay_type": "ADME, organism-based", "conditions": "read-out: Drug uptake"}, "[25]": {"assay": "Plasma concentration in male C57BL/6 mouse at 10 mg/kg, po administered as single dose measured at 3 hrs measured by LC/MS-MS analysis", "assay_type": "ADME, organism-based"}, "[26]": {"assay": "Brain concentration in male C57BL/6 mouse at 10 mg/kg, iv administered as single dose measured at 3 hrs measured by LC/MS-MS analysis", "assay_type": "ADME, organism-based", "conditions": "read-out: Drug uptake"}, "[27]": {"assay": "Brain concentration in male C57BL/6 mouse at 10 mg/kg, ip administered as single dose measured at 0.08 hrs measured by LC/MS-MS analysis", "assay_type": "ADME, organism-based", "conditions": "read-out: Drug uptake"}, "[28]": {"assay": "Ratio of drug level in male C57BL/6 mouse brain to plasma at 10 mg/kg, po administered as single dose measured at 1 hr measured by LC/MS-MS analysis", "assay_type": "ADME, organism-based", "conditions": "read-out: BPR"}, "[29]": {"assay": "Plasma concentration in male C57BL/6 mouse at 10 mg/kg, po administered as single dose measured at 6 hrs measured by LC/MS-MS analysis", "assay_type": "ADME, organism-based"}, "[30]": {"assay": "Ratio of drug level in male C57BL/6 mouse brain to plasma at 10 mg/kg, iv administered as single dose measured at 0.35 hrs measured by LC/MS-MS analysis", "assay_type": "ADME, organism-based", "conditions": "read-out: BPR"}, "[31]": {"target": "T1, Polycomb complex protein BMI-1 (Homo sapiens) (UniProt P35226)", "T1 sequence (whole entry)": "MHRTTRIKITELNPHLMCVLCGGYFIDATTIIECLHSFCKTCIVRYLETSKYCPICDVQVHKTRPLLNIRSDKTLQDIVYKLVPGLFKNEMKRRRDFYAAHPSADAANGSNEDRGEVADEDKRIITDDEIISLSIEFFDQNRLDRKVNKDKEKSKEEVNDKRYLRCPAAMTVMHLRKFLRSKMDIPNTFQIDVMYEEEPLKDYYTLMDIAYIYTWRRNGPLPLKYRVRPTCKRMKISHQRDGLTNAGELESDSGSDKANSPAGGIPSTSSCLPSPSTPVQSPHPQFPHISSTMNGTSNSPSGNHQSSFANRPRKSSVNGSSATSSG", "assay": "Inhibition of BMI1 in human Glioblastoma cell 3D spheres at 7 to 10 nM assessed as reduction in phospho-RB levels measured by Western blotting method", "assay_type": "cell-based", "conditions": "Glioblastoma cell line, dose 7-10 nM"}, "[32]": {"assay": "Plasma concentration in male C57BL/6 mouse at 10 mg/kg, iv administered as single dose measured at 0.35 hrs measured by LC/MS-MS analysis", "assay_type": "ADME, organism-based"}, "[33]": {"assay": "Brain concentration in male C57BL/6 mouse at 10 mg/kg, ip administered as single dose measured at 3 hrs measured by LC/MS-MS analysis", "assay_type": "ADME, organism-based", "conditions": "read-out: Drug uptake"}}, "note": "Activity calls are given as the source filed them. The calls are words filed in the database; no cut-off is given here."}
{"smiles": "Cc1nc2ccccn2c1-c1csc(Nc2ccc3c(c2)OC(F)(F)O3)n1.Cl", "values": [{"measurement": "concentration at 0.08 h", "setting": "[1]", "result": 1660, "unit": "ng/g"}, {"measurement": "concentration at 0.35 h", "setting": "[2]", "result": 138, "unit": "ng/mL"}, {"measurement": "Kp at 0.35 h", "setting": "[3]", "result": 0.96}, {"measurement": "concentration at 3 h", "setting": "[4]", "result": 5.78, "unit": "ng/g"}, {"measurement": "Kp at 3 h", "setting": "[5]", "result": 4.34}, {"measurement": "concentration at 0.08 h", "setting": "[6]", "result": 175, "unit": "ng/mL"}, {"measurement": "Kp at 3 h", "setting": "[7]", "result": 1.6}, {"measurement": "Kp at 0.35 h", "setting": "[8]", "result": 1.6}, {"measurement": "concentration at 3 h", "setting": "[9]", "result": 1.43, "unit": "ng/mL"}, {"measurement": "Kp at 6 h", "setting": "[10]", "result": 1.81}, {"measurement": "concentration at 1 h", "setting": "[11]", "result": 80.7, "unit": "ng/mL"}, {"measurement": "concentration at 1 h", "setting": "[12]", "result": 79.1, "unit": "ng/mL"}, {"measurement": "Kp at 0.08 h", "setting": "[13]", "result": 1.07}, {"measurement": "Kp at 1 h", "setting": "[14]", "result": 2.78}, {"measurement": "concentration at 6 h", "setting": "[15]", "result": 5.13, "unit": "ng/g"}, {"measurement": "concentration at 6 h", "setting": "[16]", "result": 4.52, "unit": "ng/g"}, {"measurement": "Ratio", "setting": "[17]", "result": 0.9}, {"measurement": "concentration at 3 h", "setting": "[18]", "result": 5.64, "unit": "ng/mL"}, {"measurement": "Kp at 1 h", "setting": "[19]", "result": 1.67}, {"measurement": "Kp at 3 h", "setting": "[20]", "result": 1.73}, {"measurement": "concentration at 0.08 h", "setting": "[21]", "result": 1580, "unit": "ng/mL"}, {"measurement": "concentration at 24 h", "setting": "[22]", "result": 6.21, "unit": "ng/g"}, {"measurement": "concentration at 0.35 h", "setting": "[23]", "result": 680, "unit": "ng/g"}, {"measurement": "concentration at 1 h", "setting": "[24]", "result": 225, "unit": "ng/g"}, {"measurement": "concentration at 3 h", "setting": "[25]", "result": 3.35, "unit": "ng/mL"}, {"measurement": "concentration at 3 h", "setting": "[26]", "result": 9.01, "unit": "ng/g"}, {"measurement": "concentration at 0.08 h", "setting": "[27]", "result": 558, "unit": "ng/g"}, {"measurement": "Kp at 1 h", "setting": "[28]", "result": 2.01}, {"measurement": "concentration at 6 h", "setting": "[29]", "result": 2.5, "unit": "ng/mL"}, {"measurement": "Kp at 0.35 h", "setting": "[30]", "result": 1.83}, {"measurement": "inhibition", "setting": "[31]", "result": "Active"}, {"measurement": "concentration at 0.35 h", "setting": "[32]", "result": 535, "unit": "ng/mL"}, {"measurement": "concentration at 3 h", "setting": "[33]", "result": 558, "unit": "ng/g"}]}
